In patent publication US20230054595A1, “NOVEL DRUGGABLE TARGETS FOR THE TREATMENT OF INFLAMMATORY DISEASES SUCH AS SYSTEMIC LUPUS ERYTHEMATOSUS (SLE) AND METHODS FOR DIAGNOSIS AND TREATMENT USING THE SAME” (THE CHILDREN'S HOSPITAL OF PHILADELPHIA, priority 2019, published 2023):

Tested on: TFH cells
Assay: IL-21 secretion by in vitro differentiated TFH cells cultured with pharmacologic inhibitors (ELISA)
Format: cell-based, human
Details: 5 days with inhibitor (A64 150-2500 nM; PF06260933 3.7-100 nM), restimulated with anti-CD3+anti-CD28, ELISA
Experimental: Human primary CD4+ T cells were cultured under TFH condition for 5 days in the presence of the indicated concentrations of each inhibitor (150 nM to 2500 nM for A64, 3.7 nM to 100 nM for PF06260933). In addition, anti-CD3- and anti-CD28-stimulated human CD4+ T cells (non-TFH) were cultured in the presence of inhibitors. After 5 days of primary culture, cells were harvested and 10^6 cells were restimulated with plate-bound human anti-CD3+ anti-CD28 (1 ug/ml each) in the presence of inhibitors. Culture supernatants were collected at the indicated timepoints for measurement of IL-2 and IL-21 by ELISA (eBioscience).

Nc1ccc(-c2cnc(N)c(-c3ccc(Cl)cc3)c2)cn1 [PF06260933]
IL-21 production by TFH cells: dose-dependent reduction | IL-21 production by TFH cells (listed as MINK inhibitory drug): dose-dependent inhibition
